Converted amounts (≈) assume the structure as drawn. “And” between values parts separate entries of the source, which are not always exact repeats. Identical values can stand only once.
Legend:
[1] = target: T1, S. aureus ATCC 29213 FabI (Staphylococcus aureus, UniProt Q6GI75); assay: Staphylococcus aureus FabI enzyme inhibition assay; assay type: biochemical; conditions: read-out: FabI (300.235) IC50 (converted)
T1 sequence (Q6GI75 1-256): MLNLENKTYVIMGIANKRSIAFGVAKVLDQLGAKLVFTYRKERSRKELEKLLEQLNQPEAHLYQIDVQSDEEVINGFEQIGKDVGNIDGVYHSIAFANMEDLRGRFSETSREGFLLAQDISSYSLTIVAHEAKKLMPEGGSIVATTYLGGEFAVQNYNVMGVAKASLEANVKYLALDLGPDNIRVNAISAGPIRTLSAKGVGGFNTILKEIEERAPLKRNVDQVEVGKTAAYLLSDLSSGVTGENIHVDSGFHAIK
In short: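 S. aureus ATCC 29213 FabI (50 μg/ml) with 250 μM crotonoyl-CoA and 625 μM NADH in 100 mM NaADA pH 6.5, inhibitor 50–0.39 μM, 30 min at room temperature. Stopped by Tris pH 9.0 shift; NADH at 340 nm versus no-compound and no-enzyme controls; IC50 in μg/ml.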

[2] = tested on: Staphylococcus aureus ATCC 29213; assay: Antibacterial susceptibility testing, IC90 determination (STA); assay type: cell-based; conditions: resazurin; for IC90: Staphylococcus aureus, ATCC29213, Staphylococcus aureus ATCC 29213, broth microdilution, read-out: STA (361.159) IC90
In short: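 S. aureus ATCC 29213 tested by broth microdilution in Mueller-Hinton broth, 5×10^5 CFU/ml, two-fold compound dilutions typically 63 to 0.49 μM, 1.25% DMSO, 16-20 h at 35° C. Growth read fluorometrically with resazurin (ex 540/em 590 nm); IC90 in μg/ml is 90% growth-inhibitory concentration.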

[3] = tested on: S. aureus; assay: Antibacterial susceptibility testing, IC90 determination with 10% human serum (STA + 10% HS); assay type: cell-based, Staphylococcus aureus; conditions: human serum at final concentration of 10%; for IC90: Staphylococcus aureus, read-out: STA + 10% HS (361.169) IC90
In short: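 Broth microdilution in Mueller-Hinton broth with 10% human serum, 5×10^5 CFU/ml S. aureus, two-fold compound dilutions (typically 63 to 0.49 μM), 1.25% DMSO, 16-20 h at 35° C. Growth read fluorometrically with resazurin (ex 540/em 590 nm); IC90 in μg/ml is the 90% growth-inhibitory concentration.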

[4] = tested on: Human HelaM cells; assay: Cytotoxicity MTT assay (HELAM); assay type: cell-based; conditions: 72 hours
In short: (§1)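 HelaM cells exposed 72 h at 37° C to serial dilutions, typically 25 to 0.8 μM, in 0.5% DMSO. MTT formazan dissolved in 2-propanol, absorbance at 540 nm minus 690 nm; CC50 is concentration halving viability.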

[5] = Cytotoxicity MTT assay (HELAM); assay type: cell-based, Human; conditions: human, HelaM cells, read-out: HELAM (222.125) CC50
In short: as §1

[6] = Thermodynamic solubility (pH solubility profiling); assay type: physicochemical; conditions: thermodynamic from solid
Experimental: The pH solubility profiling was carried out at ambient temperature for a period of 4 days. A saturation solubility study was carried out in order to determine maximum solubility in a particular buffer solution. The compound was added to respective buffer solution until saturation point is reached. This was followed by shaking the flask for 4 days at ambient temperature. After 4 days, the solutions were filtered and injected on UPLC and the concentration was determined using a generic HPLC method.

SMILES	IC50 [1]	IC90 [2]	IC90 [3]	melting point	solubility thermodynamic at 4 days ([6]; aqueous buffer, Buffer pH 4, ambient temperature)	solubility thermodynamic at 4 days ([6]; aqueous buffer, Buffer pH 7.4, ambient temperature)	solubility thermodynamic at 4 days ([6]; aqueous with cosolvent or surfactant or cyclodextrin, 10% HP-β-CD buffer pH 4, ambient temperature)	solubility thermodynamic at 4 days ([6]; aqueous with cosolvent or surfactant or cyclodextrin, 10% HP-β-CD buffer pH 7.4, ambient temperature)	solubility thermodynamic at 4 days ([6]; aqueous with cosolvent or surfactant or cyclodextrin, 20% HP-β-CD buffer pH 4, ambient temperature)	solubility thermodynamic at 4 days ([6]; aqueous with cosolvent or surfactant or cyclodextrin, 20% HP-β-CD buffer pH 7.4, ambient temperature)	solubility thermodynamic at 4 days ([6]; pH 2, aqueous with cosolvent or surfactant or cyclodextrin, 20% HP-β-CD 0.01N HCl, ambient temperature)	solubility thermodynamic at 4 days ([6]; pH 2, simulated gastric fluid, 0.01N HCl, ambient temperature)	STA (361.159) IC90 ([2]; Staphylococcus aureus ATCC 29213, broth microdilution)	STA + 10% HS (361.169) IC90 [3]	HELAM (222.125) CC50 [4]	CC50 at 72 h [5]
O=C1CNCc2cc(/C=C/C(=O)N3CC4C=C(c5ccccc5)CC4C3)cnc2N1 (stereo not drawn) [compound 47]	874 nM	–	–	–	–	–	–	–	–	–	–	–	0.24 µg/mL	0.26 µg/mL	>10.06 µg/mL	–
O=C1COCc2cc(/C=C/C(=O)N3CC4C=C(c5ccsc5)CC4C3)cnc2N1 (stereo not drawn) [compound 41]	1030 nM	< 0.2 µg/mL	0.23 µg/mL	152 °C	–	–	–	–	–	–	–	–	–	–	–	> 10.2 µg/mL
CC(C)C1Oc2cc(/C=C/C(=O)N3CC4C=C(c5nccs5)CC4C3)cnc2NC1=O (stereo not drawn) [compound 64]	825 nM	< 0.21 µg/mL	< 0.21 µg/mL	223.55 °C	–	–	–	–	–	–	–	–	–	–	–	> 11 µg/mL
CC(=O)N1CCN2C(=O)c3cc(/C=C/C(=O)N4CC5C=C(c6ccccc6)CC5C4)cnc3NC(=O)C2C1 (stereo not drawn) [compound 83]	1230 nM	0.48 µg/mL (≈ 0.938 µM)	0.47 µg/mL	262 to 264 °C	–	–	–	–	–	–	–	–	–	–	–	> 12.9 µg/mL
O=C1Nc2ncc(/C=C/C(=O)N3CC4C=C(c5ccccc5)CC4C3)cc2CN2CCNCC12 (stereo not drawn) [compound 79]	1320 nM	0.36 µg/mL (≈ 0.79 µM)	< 0.22 µg/mL	191 to 216 °C	150 µg/mL (≈ 329 µM)	10 µg/mL (≈ 22 µM)	> 5330 µg/mL	> 5110 µg/mL	> 4450 µg/mL	> 4880 µg/mL	> 4490 µg/mL	> 1160 µg/mL	–	–	–	> 11.4 µg/mL

Second part, led by results:

IC50 [1]	IC90 [2]	IC90 [3]	melting point	solubility thermodynamic at 4 days ([6]; aqueous buffer, Buffer pH 4, ambient temperature)	solubility thermodynamic at 4 days ([6]; aqueous buffer, Buffer pH 7.4, ambient temperature)	solubility thermodynamic at 4 days ([6]; aqueous with cosolvent or surfactant or cyclodextrin, 10% HP-β-CD buffer pH 4, ambient temperature)	solubility thermodynamic at 4 days ([6]; aqueous with cosolvent or surfactant or cyclodextrin, 10% HP-β-CD buffer pH 7.4, ambient temperature)	solubility thermodynamic at 4 days ([6]; aqueous with cosolvent or surfactant or cyclodextrin, 20% HP-β-CD buffer pH 4, ambient temperature)	solubility thermodynamic at 4 days ([6]; aqueous with cosolvent or surfactant or cyclodextrin, 20% HP-β-CD buffer pH 7.4, ambient temperature)	solubility thermodynamic at 4 days ([6]; pH 2, aqueous with cosolvent or surfactant or cyclodextrin, 20% HP-β-CD 0.01N HCl, ambient temperature)	solubility thermodynamic at 4 days ([6]; pH 2, simulated gastric fluid, 0.01N HCl, ambient temperature)	SMILES	STA (361.159) IC90 ([2]; Staphylococcus aureus ATCC 29213, broth microdilution)	STA + 10% HS (361.169) IC90 [3]	HELAM (222.125) CC50 [4]	CC50 at 72 h [5]
1730 nM	< 0.22 µg/mL	0.36 µg/mL	208.43 °C	–	–	–	–	–	–	–	–	Cc1cncc(C(=O)Nc2ccc(/C=C/C(=O)N3CC4C=C(c5ccsc5)CC4C3)cn2)c1 (stereo not drawn) [compound 5]	–	–	–	10.1 µg/mL (≈ 22.1 µM)
1070 nM	0.34 µg/mL (≈ 0.91 µM)	0.5 µg/mL	251 °C and 251.61 °C	–	–	–	–	–	–	–	–	CC(=O)Nc1ccc(/C=C/C(=O)N2CC3C=C(c4ccccc4)CC3C2)cn1 (stereo not drawn) [compound 10]	–	–	–	> 9.38 µg/mL

Source: patent publication US9315522B2, “Antibacterial compounds” (JANSSEN SCIENCES IRELAND UC, priority 2012, dated 2016)
